Legend:
[1] = test system: cardiac fibroblasts transfected with AdV-Kv1.3-GFP; test: Cell viability and apoptosis with Hoechst nuclei stain in Kv1.3 transfected cardiac fibroblasts; format: cell-based, rat; details: for rescue of cells from Kv1.3 induced apoptosis: Kv1.3 transfected fibroblasts, n=3 for each titer, three days in culture
Excerpt: (§1) Cells: Primary neonatal cardiac cells were obtained from ventricles of 2-3-day-old rat pups. The ventricles were fine minced, dissociated in Ca^2+-free Hank's balanced salt solution (HBSS) supplemented with 0.1%, trypsin and 0.006% pancreatin, and dispersed by triturating.
(§2) Separation and culture of cardiac myocytes and fibroblasts: The solution of dispersed cells was supplemented with 10% neonatal calf serum to stop enzymatic activity, centrifuged, resuspended in culture medium, pre-plated in large culture flasks, and incubated for two hours to isolate the fibroblast enriched fraction. Fibroblasts were further purified by media exchange within 1 hour after each passage. The myocytes remaining in suspension were collected and plated at 1.5 10^5 cells/cm^2 and grown for five to seven days before experimentation.
(§3) Transfection: Subconfluent myocyte and fibroblast cultures were transfected with AdV-Kv1.3-GFP or AdV-GFP at 10^6-10^8 PFU/ml. After transfection the cells were cultured in 0-5% serum media with 0, 1, 10 or 100 nM Charybdotoxin (CTx), which is a specific K^+ channel blocker. After three days in culture, the cells were visually monitored and assayed.
Cell Viability and apoptosis: Cells were assayed for viability and apoptosis with Hoechst nuclei stain.

[2] = test system: cardiac fibroblasts transfected with AdV-Kv1.3-GFP; test: Phase contrast microscopy of cellular morphology of Kv1.3 expressing cardiac fibroblasts; format: cell-based, rat; details: cells expressing Kv1.3 after 10^7 PFU/ml AdV-Kv1.3-GFP; phase contrast microscopy (FIG. 8B)
Excerpt: as §1, §2, §3

Substance: Charybdotoxin
- rescue of cells from Kv1.3 induced apoptosis ([1]; Charybdotoxin alone (FIG. 7A)): partially rescued the cells
- rescue of cells from Kv1.3 induced apoptosis ([1]; cTx and 5% serum (FIG. 7B)): partially rescued the cells
- cardiac fibroblast cell viability ([1]; cells expressing Kv1.3, addition of Charybdotoxin (FIG. 8)): rescued
- cellular morphology of the fibroblasts [2]: maintained normal cellular morphology

Source: patent publication US20110144028A1, “MODULATING CELLULAR ELECTROPHYSIOLOGY” (priority 2009, published 2011)
